Data taken from ChEMBL document CHEMBL6182876, “Design, synthesis and preliminary structure-activity relationship of 2-iminothiazolidine-4-one derivatives against Schistosoma japonicum in vitro and in vivo” (Eur J Med Chem, 2025).
pIC50: −log10 of the molar value.

Key:
Schistosoma japonicum [1] = assay: Anti-schistosomal activity against adult Schistosoma japonicum assessed as worm mortality at 100 uM measured at 4 hrs relative to control; type: functional
Schistosoma japonicum [2] = assay: Anti-schistosomal activity against adult Schistosoma japonicum assessed as worm mortality at 100 uM measured at 8 hrs relative to control; type: functional
Schistosoma japonicum [3] = assay: Anti-schistosomal activity against adult Schistosoma japonicum assessed as worm mortality at 100 uM measured at 12 hrs relative to control; type: functional
Schistosoma japonicum [4] = assay: Anti-schistosomal activity against adult Schistosoma japonicum assessed as worm mortality at 100 uM measured at 24 hrs relative to control; type: functional
Schistosoma japonicum [5] = assay: Anti-schistosomal activity against adult Schistosoma japonicum assessed as worm mortality at 100 uM measured at 48 hrs relative to control; type: functional
Schistosoma japonicum [6] = assay: Anti-schistosomal activity against adult Schistosoma japonicum assessed as worm mortality at 100 uM measured at 72 hrs relative to control; type: functional
Schistosoma japonicum [7] = assay: Anti-schistosomal activity against adult Schistosoma japonicum measured at 72 hrs; type: functional, organism-based

Compound	mortality at 100 µM (Schistosoma japonicum [1]) [%]	mortality at 100 µM (Schistosoma japonicum [2]) [%]	mortality at 100 µM (Schistosoma japonicum [3]) [%]	mortality at 100 µM (Schistosoma japonicum [4]) [%]	mortality at 100 µM (Schistosoma japonicum [5]) [%]	mortality at 100 µM (Schistosoma japonicum [6]) [%]	pIC50 (Schistosoma japonicum [7])
CCOC(=O)/C=C1\S/C(=N\c2cccc(Cl)c2)N(CCCN2CCN(C)CC2)C1=O	10	30	100	100	100	100	4.39
CCOC(=O)/C=C1\S/C(=N\c2ccccc2)N(CCN2CCCCC2)C1=O	0	0	0	0	10	50	< 4.00
CCOC(=O)/C=C1\S/C(=N\c2ccccc2)N(CCN2CCC(Cc3ccccc3)CC2)C1=O	0	0	0	0	20	70	4.04
CCOC(=O)/C=C1\S/C(=N\c2ccccc2)N(Cc2ccccc2)C1=O	0	0	0	0	0	0	< 4.00
COc1ccc(/C=C2\S/C(=N\c3ccc(C(F)(F)F)cc3)N(CCCN3CCN(C)CC3)C2=O)cc1	0	0	0	0	20	60	
CN1CCN(CCCN2C(=O)CS/C2=N\c2ccc(C(F)(F)F)cc2)CC1	0	0	0	0	0	10	
CCOC(=O)/C=C1\S/C(=N\C)N(CCCN2CCN(C)CC2)C1=O	0	0	0	0	0	0	< 4.00
Cc1ccccc1/C=C1\S/C(=N\c2ccc(C(F)(F)F)cc2)N(CCCN2CCN(C)CC2)C1=O	0	0	0	0	10	30	
CCOC(=O)/C=C1\S/C(=N\c2ccccc2)N(CCN(C)C)C1=O	0	0	0	0	0	10	< 4.00
Cc1cc(/C=C2\S/C(=N\c3ccc(C(F)(F)F)cc3)N(CCCN3CCN(C)CC3)C2=O)ccc1F	0	0	0	10	20	30	
CN1CCN(CCCN2C(=O)/C(=C/c3cccc(Cl)c3)S/C2=N\c2ccc(C(F)(F)F)cc2)CC1	20	40	70	100	100	100	
CCOC(=O)/C=C1\S/C(=N\c2ccccc2Br)N(CCCN2CCN(C)CC2)C1=O	0	20	60	100	100	100	4.51
CCOC(=O)/C=C1\S/C(=N\c2ccc(Br)cc2)N(CCCN2CCN(C)CC2)C1=O	0	30	60	100	100	100	4.45
CCOC(=O)/C=C1\S/C(=N\c2ccc(OC)cc2)N(CCCN2CCN(C)CC2)C1=O	0	0	0	0	10	30	4.02
Cc1ccc(/C=C2\S/C(=N\c3ccc(C(F)(F)F)cc3)N(CCCN3CCN(C)CC3)C2=O)cc1	0	0	0	30	70	100	
CCOC(=O)/C=C1\S/C(=N\c2ccc(Cl)cc2)N(CCCN2CCN(C)CC2)C1=O	0	40	80	100	100	100	4.38
CCOC(=O)/C=C1\S/C(=N\c2ccc(Cl)c(Cl)c2)N(CCCN2CCN(C)CC2)C1=O	0	40	100	100	100	100	4.41

Compound	mortality at 100 µM (Schistosoma japonicum [1]) [%]	mortality at 100 µM (Schistosoma japonicum [2]) [%]	mortality at 100 µM (Schistosoma japonicum [3]) [%]	mortality at 100 µM (Schistosoma japonicum [4]) [%]	mortality at 100 µM (Schistosoma japonicum [5]) [%]	mortality at 100 µM (Schistosoma japonicum [6]) [%]	pIC50 (Schistosoma japonicum [7])
CCOC(=O)/C=C1\S/C(=N\c2cc(C(F)(F)F)cc(C(F)(F)F)c2)N(CCCN2CCN(C)CC2)C1=O	0	40	100	100	100	100	4.44
CCOC(=O)/C=C1\S/C(=N\c2ccccc2)N(CCCN2CCCC2)C1=O	0	0	0	20	30	100	4.11
CCOC(=O)/C=C1\S/C(=N\c2ccc(F)cc2)N(CCCN2CCN(C)CC2)C1=O	0	0	0	30	80	100	4.37
CCOC(=O)/C=C1\S/C(=N\c2ccccc2C(F)(F)F)N(CCCN2CCN(C)CC2)C1=O	0	40	100	100	100	100	4.48
CCOC(=O)/C=C1\S/C(=N\c2ccc([N+](=O)[O-])cc2)N(CCCN2CCN(C)CC2)C1=O	0	0	0	10	100	100	4.14
CN1CCN(CCCN2C(=O)/C(=C/c3ccccc3F)S/C2=N\c2ccc(C(F)(F)F)cc2)CC1	0	0	0	0	0	20	
CCOC(=O)/C=C1\S/C(=N\c2ccccc2)N(CCN(CC)CC)C1=O	0	0	0	10	10	30	< 4.00
CN1CCN(CCCN2C(=O)/C(=C/c3ccccc3Cl)S/C2=N\c2ccc(C(F)(F)F)cc2)CC1	0	0	0	0	0	40	
COc1cccc(/C=C2\S/C(=N\c3ccc(C(F)(F)F)cc3)N(CCCN3CCN(C)CC3)C2=O)c1	0	0	20	70	100	100	
CCOC(=O)/C=C1\S/C(=N\c2cc(F)ccc2F)N(CCCN2CCN(C)CC2)C1=O	0	0	0	30	100	100	4.51
CN1CCN(CCCN2C(=O)/C(=C/c3ccccc3)S/C2=N\c2ccc(C(F)(F)F)cc2)CC1	0	0	0	10	20	30	
Cc1cccc(/C=C2\S/C(=N\c3ccc(C(F)(F)F)cc3)N(CCCN3CCN(C)CC3)C2=O)c1	0	0	0	20	90	100	
CN1CCN(CCCN2C(=O)/C(=C/c3ccc([N+](=O)[O-])cc3)S/C2=N\c2ccc(C(F)(F)F)cc2)CC1	0	0	0	0	30	70	
CN1CCN(CCCN2C(=O)/C(=C/c3cccc(F)c3)S/C2=N\c2ccc(C(F)(F)F)cc2)CC1	0	0	0	0	30	30	
COc1ccccc1/C=C1\S/C(=N\c2ccc(C(F)(F)F)cc2)N(CCCN2CCN(C)CC2)C1=O	0	0	0	0	10	70	
CN1CCN(CCCN2C(=O)/C(=C/c3ccc(Cl)cc3)S/C2=N\c2ccc(C(F)(F)F)cc2)CC1	0	0	0	100	100	100	
CCOC(=O)/C=C1\S/C(=N\c2ccc(CC)cc2)N(CCCN2CCN(C)CC2)C1=O	0	0	10	60	100	100	
